Assay results as given in patent US10294202B2, “Pyrrolidinones as herbicides” (FMC Corporation, priority 2013, dated 2019).

Tests used:
waterhemp = assay: Test E preemergence herbicide test; assay type: in vivo, Amaranthus rudis; design: key: 0 = no effect, 100 = complete control
From the text: (§1) Seeds of plant species selected from corn (Zea mays), soybean (Glycine max), velvetleaf (Abutilon theophrasti), lambsquarters (Chenopodium album), wild poinsettia (Euphorbia heterophylla), pigweed, palmer (palmer pigweed, Amaranthus palmeri), waterhemp (common waterhemp, Amaranthus rudis), surinam grass (Brachiaria decumbens), crabgrass, large (large crabgrass, Digitaria sanguinalis), crabgrass, Brazil (Brazilian crabgrass, Digitaria horizontalis), panicum, fall (fall panicum, Panicum dichotomiflorum), foxtail, giant (giant foxtail, Setaria faberii), foxtail, green (green foxtail, Setaria viridis), goosegrass (Eleusine indica), johnsongrass (Sorghum halepense), ragweed (common ragweed, Ambrosia elatior), barnyardgrass (Echinochloa crus-galli), sandbur (southern sandbur, Cenchrus echinatus), arrowleaf […] rhombifolia), ryegrass, Italian (Italian ryegrass, Lolium multiflorum), dayflower, VA (Virginia dayflower, Commelina virginica), field bindweed (Convolvulus arvensis), morningglory (Ipomoea coccinea), nightshade (eastern black nightshade, Solanum ptycanthum), kochia (Kochia scoparia), nutsedge, yellow (yellow nutsedge, Cyperus esculentus), cocklebur (common cocklebur, Xanthium strumarium), smartweed (ladysthumb smartweed, Polygonum Persicaria) and beggarticks (hairy beggarticks, Bidens pilosa), were planted into a silt loam soil and treated preemergence with test chemicals formulated in a non-phytotoxic solvent mixture which included a surfactant. Treated plants and controls were maintained in a greenhouse for 21 days, after which time all species were compared to controls and visually evaluated. Plant response ratings, summarized in Table E, are based on a scale of 0 to 100 where 0 is no effect and 100 is complete control. A dash (-) response means no test result.

field poppy = assay: Test D pre-/postemergence herbicide test; assay type: in vivo, Papaver rhoeas; settings: for Plant response rating: Field Poppy, scale 0 to 100; for Plant response rating, Field Poppy: scale 0 to 100 (0 no effect, 100 complete control)
From the text: Seeds of plant species selected from bluegrass (annual bluegrass, Poa annua), blackgrass (Alopecurus myosuroides), canarygrass (littleseed canarygrass, Phalaris minor), chickweed (common chickweed, Stellaria media), galium (catchweed bedstraw, Galium aparine), bromegrass, downy (downy bromegrass, Bromus tectorum), field poppy (Papaver rhoeas), field violet (Viola arvensis), foxtail, green (green foxtail, Setaria viridis), deadnettle (henbit deadnettle, Lamium amplexicaule), ryegrass, Italian (Italian ryegrass, Lolium multiflorum), kochia (Kochia scoparia), lambsquarters (Chenopodium album), oilseed rape (Brassica napus), pigweed (Amaranthus retroflexus), chamomile (scentless chamomile, Matricaria inodora), Russian thistle (Salsola kali), speedwell (bird's-eye speedwell, Veronica persica), barley, spring (spring barley, Hordeum vulgare), wheat, spring (spring wheat, Triticum aestivum), buckwheat, wild (wild buckwheat, Polygonum convolvulus), mustard, wild (wild mustard, Sinapis arvensis), oat, wild (wild oat, Avena fatua), radish, wild (wild radish, Raphanus raphanistrum), […]), barley, winter (winter barley, Hordeum vulgare), and wheat, winter (winter wheat, Triticum aestivum) were planted into a silt loam soil and treated preemergence with test chemicals formulated in a non-phytotoxic solvent mixture which included a surfactant. At the same time, these species were planted in pots containing Redi-Earth® planting medium (Scotts Company, 14111 Scottslawn Road, Marysville, Ohio 43041) comprising spaghnum peat moss, vermiculite, wetting agent and starter nutrients and treated with postemergence applications of the test chemicals formulated in the same manner. Plants ranged in height from 2 to 18 cm (1- to 4-leaf stage). Treated plants and controls were maintained in a controlled growth environment for 7 to 21 days after which time all species were compared to controls and visually evaluated. Plant response ratings, summarized in Table D, are based on a scale of 0 to 100 where 0 is no effect and 100 is complete control. A dash (-) response means no test result.

beggarticks = assay: Test E preemergence herbicide test; assay type: in vivo, Bidens pilosa; design: key: 0 = no effect, 100 = complete control
From the text: as §1

ragweed = assay: Test E preemergence herbicide test; assay type: in vivo, Ambrosia elatior; design: key: 0 = no effect, 100 = complete control
How it was run: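 Greenhouse preemergence test: seeds sown into silt loam received compound in a non-phytotoxic solvent mixture with surfactant. Plants grew 21 days before visual comparison with controls. Scores run from 0, no effect, to 100, complete control.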

panicum, fall = assay: Test E preemergence herbicide test; assay type: in vivo, Panicum dichotomiflorum; design: key: 0 = no effect, 100 = complete control
From the text: as §1

Compound | Plant response rating, Waterhemp (waterhemp; 31 g ai/ha) | Plant response rating, Waterhemp (waterhemp; 62 g ai/ha) | Plant response rating, Waterhemp (waterhemp; 125 g ai/ha) | Plant response rating, Waterhemp (waterhemp; 250 g ai/ha) | Plant response rating (field poppy; Postemergence, 31 g ai/ha) | Plant response rating, Field Poppy (field poppy; Preemergence, 62 g ai/ha) | Plant response rating, Field Poppy (field poppy; Preemergence, 31 g ai/ha) | Plant response rating (field poppy; Preemergence, 250 g ai/ha) | Plant response rating, Beggarticks (beggarticks; 31 g ai/ha) | Plant response rating, Beggarticks (beggarticks; 62 g ai/ha) | Plant response rating, Beggarticks (beggarticks; 125 g ai/ha) | Plant response rating, Beggarticks (beggarticks; 250 g ai/ha) | Plant response rating, Ragweed (ragweed; 31 g ai/ha) | Plant response rating, Ragweed (ragweed; 62 g ai/ha) | Plant response rating, Ragweed (ragweed; 125 g ai/ha) | Plant response rating, Ragweed (ragweed; 250 g ai/ha) | Plant response rating, Panicum, Fall (panicum, fall; 31 g ai/ha) | Plant response rating, Panicum, Fall (panicum, fall; 62 g ai/ha) | Plant response rating, Panicum, Fall (panicum, fall; 125 g ai/ha) | Plant response rating, Panicum, Fall (panicum, fall; 250 g ai/ha) | other results
O=C1NCC(c2ccc(C(F)(F)F)cc2)C1C(=O)Nc1cccc(F)c1F (racemic) [Compound 202] | 50 | 60 | 95 | 95 | 0 | 85 | 85 | 100 | 0 | 0 | 35 | 80 | 20 | 80 | 85 | 90 | 0 | 0 | 50 | 85 | Plant response rating (field poppy; Postemergence, 62 g ai/ha): 75; Plant response rating (field poppy; Postemergence, 125 g ai/ha): 100; Plant response rating (field poppy; Postemergence, 250 g ai/ha): 100; Plant response rating (field poppy; Preemergence, 125 g ai/ha): 90
O=C1NCC(c2ccc(OC(F)F)cc2)C1C(=O)Nc1cccc(F)c1F (racemic) [Compound 350] | 0 | 0 | 0 | 35 | – | – | – | – | 0 | 0 | 20 | 20 | 0 | 0 | 60 | 65 | 0 | 0 | 0 | 0 | –
O=C1NCC(c2ccc(C(F)(F)F)cc2)C1C(=O)Nc1cccc(F)c1F (stereo not shown) [Compound 80, N-(2,3-difluorophenyl)-2-oxo-4-[4-(trifluoromethyl)phenyl]-3-pyrrolidinecarboxamide] | 20 | 30 | 50 | 60 | 25 | 100 | 90 | 100 | 0 | 0 | 20 | 60 | 0 | 0 | 0 | 20 | 0 | 0 | 0 | 0 | Plant response rating, Waterhemp (waterhemp; 16 g ai/ha): 0; Plant response rating (field poppy; Postemergence, 62 g ai/ha): 55; Plant response rating (field poppy; Postemergence, 125 g ai/ha): 20; Plant response rating (field poppy; Postemergence, 250 g ai/ha): 50; Plant response rating (field poppy; Preemergence, 125 g ai/ha): 100; Plant response rating, Beggarticks (beggarticks; 16 g ai/ha): 0; Plant response rating, Ragweed (ragweed; 16 g ai/ha): 0; Plant response rating, Panicum, Fall (panicum, fall; 16 g ai/ha): 0
O=C1NC[C@H](c2cccc(C(F)(F)F)c2)[C@H]1C(=O)Nc1ccccc1F [Compound 204, (3R,4S)—N-(2-fluorophenyl)-2-oxo-4-[3-(trifluoromethyl)phenyl]-3-pyrrolidinecarboxamide] | 0 | 0 | 0 | 0 | – | 85 | 75 | 95 | 0 | 0 | 0 | 0 | 0 | 0 | 0 | 0 | 0 | 0 | 75 | 75 | Plant response rating, Field Poppy (field poppy; Preemergence, 125 g ai/ha): 80
